ChEMBL document CHEMBL1151383, “Antitumor agents 50. 1 Morindaparvin-A, a new antileukemic anthraquinone, and alizarin-1-methyl ether from Morinda parvifolia, and the antileukemic activity of the related derivatives” (1982)
≈ marks a conversion by molar mass, not a printed value. Calls of active or inactive are those of the source. The calls are words filed in the database; no cut-off is given here.

Experiments:
Assay type in all cases: functional
[1] = tested on: P388; test: Antileukemic activity against mouse P388 cells xenografted in BDF1 mouse at 10 mg/kg/day relative to control
[2] = Antitumor activity against mouse CA-755 cells xenografted in mouse assessed as reduction in tumor weight at 450 mg/kg/day; design: scale not given: the % may be the effect or the level left
[3] = tested on: P388; test: Cytotoxicity against mouse P388 cells; settings: read-out: ED50 (the source's name)
[4] = tested on: KB; test: Cytotoxicity against human KB cells; settings: read-out: ED50 (the source's name)

With `CC(C)=CC(=O)Oc1ccc2c(c1OC(=O)C=C(C)C)C(=O)c1ccccc1C2=O` the Activity [1] was “inactive”.

For `O=C(/C=C/c1ccccc1)Oc1ccc2c(c1O)C(=O)c1ccccc1C2=O`, the Activity [1] was “inactive”.

With `CC(=O)Oc1ccc2c(c1O)C(=O)c1ccccc1C2=O` the Activity [1] was “inactive”.

With `O=C1c2ccccc2C(=O)c2c1ccc(O)c2O` [ATHRAQUINONES A] the T/C [1] was 134% and the Activity [2] was 60%.

In the case of `COc1c(O)ccc2c1C(=O)c1ccccc1C2=O`, the EC50 [3] is reported as 27 µg/mL (≈ 106 µM), the EC50 [4] is reported as greater than 10 µg/mL and the T/C [1] is reported as 136%.

With `COc1ccc2c(c1O)C(=O)c1ccccc1C2=O` the T/C [1] was 126%.

For `CC(=O)Oc1ccc2c(c1OC(C)=O)C(=O)c1ccccc1C2=O`, the Activity [1] was “inactive”.

`O=C1c2ccccc2C(=O)c2c1ccc1c2OCCO1` gave a T/C [1] of 130%.

For `O=C(/C=C/c1ccccc1)Oc1ccc2c(c1OC(=O)/C=C/c1ccccc1)C(=O)c1ccccc1C2=O`, the Activity [1] was “inactive”.

For `O=C1c2ccccc2C(=O)c2c1ccc1c2OCO1`, the EC50 [3] was 1.85 µg/mL (≈ 7.33 µM), the EC50 [4] was greater than 10 µg/mL and the T/C [1] was 129%.

For `CC(C)=CC(=O)Oc1ccc2c(c1O)C(=O)c1ccccc1C2=O`, the Activity [1] was “inactive”.
